From PubChem BioAssay (NCI)
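Each compound was tested at five concentrations against cells in 96-well plates for 48 hours. At the GI50, growth is halved. At the TGI there is no net growth.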

Assays:
Assay in all cases: NCI tumour cell line growth inhibition, 48 h
HS 578T breast = tested on: HS 578T breast
MCF7 breast = tested on: MCF7 breast
MDA-N = tested on: MDA-N
SNB-78 CNS = tested on: SNB-78 CNS
KM20L2 colon = tested on: KM20L2 colon
HOP-18 NSCLC = tested on: HOP-18 NSCLC
RXF-631 renal = tested on: RXF-631 renal
DMS 114 small cell lung = tested on: DMS 114 small cell lung
DMS 273 small cell lung = tested on: DMS 273 small cell lung

SMILES	GI50 (HS 578T breast)	TGI (HS 578T breast)	GI50 (MCF7 breast)	TGI (MCF7 breast)	TGI (MDA-N)	TGI (SNB-78 CNS)	TGI (KM20L2 colon)	TGI (HOP-18 NSCLC)	TGI (RXF-631 renal)	TGI (DMS 114 small cell lung)	TGI (DMS 273 small cell lung)	GI50 (MDA-N)
Nc1nccc(-c2c(-c3ccc(F)cc3)ncn2CCCN2CCOCC2)n1	> 25 µM	> 25 µM	> 21.6 µM	> 25 µM	–	–	–	–	–	–	–	–
COc1cc([N+](=O)[O-])ccc1NC(=O)C(F)(F)F	–	> 100 µM	–	> 100 µM	> 100 µM	–	–	–	–	–	–	–
O=C(O)C(Sc1ccc(Cl)cc1)Sc1ccc(Cl)cc1	–	> 100 µM	–	> 100 µM	> 100 µM	–	–	–	–	–	–	–
COC(=O)C(=O)C(C(=O)C(=O)Nc1ccc(C)cc1C)c1nc2ccccc2[nH]c1=O (centres undefined)	–	–	–	–	–	> 100 µM	> 100 µM	> 100 µM	> 100 µM	–	–	–
CCc1cccc(C)c1NC(C)=O	–	–	–	–	–	> 100 µM	> 100 µM	–	> 100 µM	> 100 µM	> 100 µM	–
COC(=O)C(=O)C(C(=O)C=C(C)C)C(=O)C(=O)Nc1ccc(Cl)cc1C (centres undefined)	–	–	–	–	–	–	> 100 µM	> 100 µM	> 100 µM	> 100 µM	> 100 µM	–
COc1ccc(C2CC(=O)c3c(OC)cc(OC)cc3O2)cc1 (centres undefined)	> 100 µM	> 100 µM	> 100 µM	> 100 µM	–	–	–	–	–	–	–	–
COc1cc2c3c(n(CCCBr)c(=O)c2cc1OC)-c1ccc(NC(C)=O)cc1C3=O	40.6 µM	> 100 µM	1.82 µM	> 100 µM	–	–	–	–	–	–	–	–
CC(C)CC(N)C(=O)O (centres undefined)	–	> 100 µM	–	> 100 µM	> 100 µM	–	–	–	–	–	–	–
Cc1cc(NS(=O)(=O)c2ccc(NC(=O)c3cccc4c(=O)c5ccccc5[nH]c34)cc2)no1	–	–	–	–	–	> 100 µM	> 100 µM	28.2 µM	–	> 100 µM	–	–
Cc1ccc(N=NC(C(=O)c2ccccc2)C(=O)c2ccccc2)cc1	–	–	–	–	–	–	60.9 µM	–	> 100 µM	54.7 µM	58.8 µM	–
CC(=O)SCCC1c2[nH]c3ccccc3c2CCN1O (centres undefined)	–	–	–	–	–	–	> 100 µM	> 100 µM	–	> 100 µM	> 100 µM	–
CC[C@H](C)[C@H](NC(=O)[C@H]1CCCCN1C)C(=O)N(C)[C@H](CCc1nc(C(=O)N[C@@H](Cc2ccccc2)C[C@H](C)C(=O)OC)cs1)C(C)C	0.322 µM	5.29 µM	0.0648 µM	> 25 µM	–	–	–	–	–	–	–	–
COC(=O)[C@]12CCC(C)(C)C[C@H]1C1=CC[C@@H]3[C@@]4(C)C/C(=C/c5cccnc5)C(=O)C(C)(C)[C@@H]4CC[C@@]3(C)[C@]1(C)CC2	22.7 µM	> 100 µM	3 µM	14.7 µM	–	–	–	–	–	–	–	–
CC(C)(C)C1=CC(=CC=C2C=CN(CCCCCCCCCCCO)C=C2)C=C(C(C)(C)C)C1=O	–	4.23 µM	–	1.23 µM	3.04 µM	–	–	–	–	–	–	–
CC(C)(C)OC(=O)N(CCCN(CCn1c2c(c3ccccc3c1=O)C(=O)c1ccccc1-2)C(=O)OC(C)(C)C)CCn1c2c(c3ccccc3c1=O)C(=O)c1ccccc1-2	41.1 µM	> 50 µM	> 50 µM	> 50 µM	–	–	–	–	–	–	–	–
Cn1cc(-c2csc(-c3cccc(F)c3)n2)c2cccnc21	19.3 µM	45.5 µM	17.9 µM	43.4 µM	–	–	–	–	–	–	–	–

SMILES	GI50 (HS 578T breast)	TGI (HS 578T breast)	GI50 (MCF7 breast)	TGI (MCF7 breast)	TGI (MDA-N)	TGI (SNB-78 CNS)	TGI (KM20L2 colon)	TGI (HOP-18 NSCLC)	TGI (RXF-631 renal)	TGI (DMS 114 small cell lung)	TGI (DMS 273 small cell lung)	GI50 (MDA-N)
Cc1cc(C)cc(Nc2cc(C)nc3nc(C(F)(F)F)nn23)c1	34.9 µM	> 100 µM	> 100 µM	> 100 µM	–	–	–	–	–	–	–	–
N#C/C(C(=S)Nc1ccccc1)=C1/NN=C2c3ccccc3C(=O)NN21	22.7 µM	57.2 µM	22.8 µM	77.5 µM	–	–	–	–	–	–	–	–
Cc1cc(C2CCCCC2)n(O)c(=O)c1	46 µM	> 100 µM	3.01 µM	> 100 µM	–	–	> 100 µM	> 100 µM	> 100 µM	> 100 µM	–	–
Cc1cccc(N2C(=O)C(Cl)=C(Cl)C2=O)c1	–	–	–	–	–	> 100 µM	> 100 µM	> 100 µM	–	> 100 µM	> 100 µM	–
Cc1[nH]c(N=Nc2ccccc2)nc1N=Nc1ccccc1	12.8 µM	> 34.8 µM	2.73 µM	15.3 µM	–	–	–	–	–	–	–	–
Cn1cc(C2=C(c3cn(CCCN=C(N)N)c4ccccc34)C(=O)NC2=O)c2ccccc21	> 25 µM	> 25 µM	> 25 µM	> 25 µM	–	–	–	–	–	–	–	–
CCCCCCCCCCC(O)C1CCC(C2CCC(C(O)CCCCC(O)CCCCCC(O)CC3=CC(C)OC3=O)O2)O1 (centres undefined)	–	–	23.5 µM	> 25 µM	> 25 µM	–	–	–	–	–	–	> 25 µM
COc1cccc(N=Cc2c3ccccc3c(=O)n3c2oc2ccccc23)c1	34.9 µM	> 100 µM	4.06 µM	> 100 µM	–	–	–	–	–	–	–	–
COc1ccc(C(=O)/C=C/c2cccnc2Nc2cc(OC)c(OC)c(OC)c2)cc1	5.31 µM	38.6 µM	0.106 µM	11 µM	–	–	–	–	–	–	–	–
CN(C)C(=S)SN(C)C(=O)Nc1ccccc1	–	> 100 µM	–	> 47.1 µM	43.3 µM	> 100 µM	> 100 µM	–	> 100 µM	27.4 µM	77.6 µM	–
O=C(O)c1cc(N=Nc2ccc([As](=O)(O)O)cc2)ccc1O	–	> 100 µM	–	> 100 µM	> 100 µM	–	–	–	–	–	–	–
CC12CCCC(CC(=O)c3[nH]c4ccccc4c31)C2 (centres undefined)	0.936 µM	37.8 µM	0.4 µM	> 56.7 µM	–	–	–	–	–	–	–	–
C[C@]12CC[C@@H]3c4ccc(O)cc4CC[C@H]3[C@@H]1CC[C@@H]2NS(=O)(=O)c1ccc(C(F)(F)F)cc1	2.23 µM	6.01 µM	2.26 µM	5 µM	–	–	–	–	–	–	–	–
C[C@]12CC[C@@H]3c4ccc(Oc5nc(N6CC6)nc(N6CC6)n5)cc4CC[C@H]3[C@@H]1CCC2=O	4.64 µM	44.8 µM	2.78 µM	14.7 µM	–	–	–	–	–	–	–	–
NC(N)=NC(N)=Nc1cc2ccccc2c2ccccc12	11.5 µM	33.8 µM	3.7 µM	18.8 µM	–	–	–	–	–	–	–	–
COc1ccc(-c2cc3c(nn2)-c2ccccc2C3=O)cc1	> 100 µM	> 100 µM	36.1 µM	> 100 µM	> 10 µM	–	–	–	–	–	–	–
